The subject of test [1] is Puccinia recondita f. Sp. Tritici. Briefly: Fungicidal activity, wheat leaf disc preventative (brown rust). As to conditions: foliar, 200 ppm in the applied formulation, wheat leaf segments cv. Kanzler, compared to untreated control, 7 to 9 days after application, read-out: disease control. The test is classed as in vivo. As to the method: Leaf disks or leaf segments of various plant species are cut from plants grown in a greenhouse. The cut leaf disks or segments are placed in multiwell plates (24-well format) onto water agar. The leaf disks are sprayed with a test solution before (preventative) or after (curative) inoculation. Compounds to be tested are prepared as DMSO solutions (max. 10 mg/ml) which are diluted to the appropriate concentration with 0.025% Tween20 just before spraying. The inoculated leaf disks or segments are incubated under defined conditions (temperature, relative humidity, light, etc.) according to the respective test system. A single evaluation of disease level is carried out 3 to 14 days after inoculation, depending on the pathosystem. Percent disease control relative to the untreated check leaf disks or segments is then calculated.
Wheat leaf segments cv. Kanzler were placed on agar in multiwell plates (24-well format) and sprayed with the formulated test compound diluted in water. The leaf disks were inoculated with a spore suspension of the fungus 1 day after application. The inoculated leaf segments were incubated at 19° C. and 75% relative humidity (rh) under a light regime of 12 hours light/12 hours darkness in a climate cabinet and the activity of a compound was assessed as percent disease control compared to untreated when an appropriate level of disease damage appears in untreated check leaf segments (7 to 9 days after application).
The following compounds at 200 ppm in the applied formulation give at least 80% disease control in this test when compared to untreated control leaf disks under the same conditions, which show extensive disease development.

The subject of test [2] is Glomerella lacenarium (Colletotrichum lacenarium). Nature of the test: Fungicidal activity, liquid culture, cucumber preventative (anthracnose). The test is classed as cell-based. The following applies: 20 ppm in the applied formulation, liquid culture in PDB, inhibition of growth measured photometrically 3 to 4 days after application, compared to untreated control, read-out: disease control. As to the method:
Mycelia fragments or conidia suspensions of a fungus prepared either freshly from liquid cultures of the fungus or from cryogenic storage, are directly mixed into nutrient broth. DMSO solutions of the test compound (max. 10 mg/ml) are diluted with 0.025% Tween20 by a factor of 50 and 10 μl of this solution is pipetted into a microtiter plate (96-well format). The nutrient broth containing the fungal spores/mycelia fragments is then added to give an end concentration of the tested compound. The test plates are incubated in the dark at 24° C. and 96% relative humidity. The inhibition of fungal growth is determined photometrically after 2 to 7 days, depending on the pathosystem, and percent antifungal activity relative to the untreated check is calculated.
Conidia of the fungus from cryogenic storage are directly mixed into nutrient broth (PDB—potato dextrose broth). After placing a (DMSO) solution of test compound into a microtiter plate (96-well format), the nutrient broth containing the fungal spores is added. The test plates are incubated at 24° C. and the inhibition of growth is measured photometrically 3 to 4 days after application.
The following compounds at 20 ppm in the applied formulation give at least 80% disease control in this test when compared to untreated control under the same conditions, which show extensive disease development.

SMILES strings stand for the structures. Where only a bound is given, the exact number is not on record here.

Experimental findings from patent publication US20200187502A1, “MICROBIOCIDAL OXADIAZOLE DERIVATIVES” (SYNGENTA PARTICIPATIONS AG, priority 2017, published 2020) are described below.

`COCC(=O)N(C)Cc1ccc(-c2noc(C(F)(F)F)n2)s1` [Compound 4.32, 2-methoxy-N-methyl-N-[[5-[5-(trifluoromethyl)-1,2,4-oxadiazol-3-yl]-2-thienyl]methyl]acetamide]: the pest or weed control at 200 ppm in test [1] was at least 80%. Moreover, the inhibition of growth at 20 ppm in test [2] was at least 80%.

Turning to `CC(=O)N(Cc1ccc(-c2noc(C(F)(F)F)n2)s1)C1CC1` [Compound 4.61, N-cyclopropyl-N-[[5-[5-(trifluoromethyl)-1,2,4-oxadiazol-3-yl]-2-thienyl]methyl]acetamide], the pest or weed control at 200 ppm in test [1] is at least 80%. Besides, the inhibition of growth at 20 ppm in test [2] was at least 80%.

Take `CCS(=O)(=O)N(Cc1ccc(-c2noc(C(F)(F)F)n2)s1)C1CC1` [Compound 6.35, N-cyclopropyl-N-[[5-[5-(trifluoromethyl)-1,2,4-oxadiazol-3-yl]-2-thienyl]methyl]ethanesulfonamide]: the pest or weed control at 200 ppm in test [1] is at least 80%. Also, the inhibition of growth at 20 ppm in test [2] is at least 80%.

Take `O=C(C(=O)N(Cc1ccc(-c2noc(C(F)(F)F)n2)s1)C1CC1)c1cccs1` [Compound 6.59, N-cyclopropyl-2-oxo-2-(2-thienyl)-N-[[5-[5-(trifluoromethyl)-1,2,4-oxadiazol-3-yl]-2-thienyl]methyl]acetamide]: the pest or weed control at 200 ppm in test [1] is at least 80%. In test [2], the inhibition of growth at 20 ppm is at least 80%.

`O=C(C(=O)N(Cc1ccc(-c2noc(C(F)(F)F)n2)s1)OCC(F)F)c1cccs1` [Compound 6.63, N-(2,2-difluoroethoxy)-2-oxo-2-(2-thienyl)-N-[[5-[5-(trifluoromethyl)-1,2,4-oxadiazol-3-yl]-2-thienyl]methyl]acetamide]: the pest or weed control at 200 ppm in test [1] was at least 80%. In addition, the inhibition of growth at 20 ppm in test [2] was at least 80%.

`CC(=O)N(Cc1ccc(-c2noc(C(F)(F)F)n2)s1)OCC(F)F` [Compound 4.69, N-(2,2-difluoroethoxy)-N-[[5-[5-(trifluoromethyl)-1,2,4-oxadiazol-3-yl]-2-thienyl]methyl]acetamide]: the pest or weed control at 200 ppm in test [1] was at least 80%. For the same compound, in test [2], the inhibition of growth at 20 ppm is at least 80%.

Turning to `O=C(C(=O)N(Cc1ccc(-c2noc(C(F)(F)F)n2)s1)OCC(F)F)c1ccco1` [Compound 6.64, N-(2,2-difluoroethoxy)-2-(2-furyl)-2-oxo-N-[[5-[5-(trifluoromethyl)-1,2,4-oxadiazol-3-yl]-2-thienyl]methyl]acetamide], in test [1], the pest or weed control at 200 ppm was at least 80%. Moreover, the inhibition of growth at 20 ppm in test [2] was at least 80%.

In the case of `O=C(CC(F)(F)F)N(Cc1ccc(-c2noc(C(F)(F)F)n2)s1)C1CC1` [Compound 4.60, N-cyclopropyl-3,3,3-trifluoro-N-[[5-[5-(trifluoromethyl)-1,2,4-oxadiazol-3-yl]-2-thienyl]methyl]propanamide], the pest or weed control at 200 ppm in test [1] was at least 80%. In addition, in test [2], the inhibition of growth at 20 ppm was at least 80%.

Turning to `COCCS(=O)(=O)N(Cc1ccc(-c2noc(C(F)(F)F)n2)s1)C1CC1` [Compound 6.32, N-cyclopropyl-2-methoxy-N-[[5-[5-(trifluoromethyl)-1,2,4-oxadiazol-3-yl]-2-thienyl]methyl]ethanesulfonamide], the pest or weed control at 200 ppm in test [1] is at least 80%. For the same compound, in test [2], the inhibition of growth at 20 ppm was at least 80%.

With `O=C(C1CCCO1)N(Cc1ccc(-c2noc(C(F)(F)F)n2)s1)OCC(F)F` (stereo not shown) [Compound 5.49, N-(2,2-difluoroethoxy)-N-[[5-[5-(trifluoromethyl)-1,2,4-oxadiazol-3-yl)-2-thienyl]methyl]tetrahydrofuran-2-carboxamide], the pest or weed control at 200 ppm in test [1] is at least 80%. The inhibition of growth at 20 ppm in test [2] was at least 80%.

As for `O=C(C(=O)N(Cc1ccc(-c2noc(C(F)(F)F)n2)s1)C1CC1)c1ccco1` [Compound 6.60, N-cyclopropyl-2-(2-furyl)-2-oxo-N-[[5-[5-(trifluoromethyl)-1,2,4-oxadiazol-3-yl]-2-thienyl]methyl]acetamide], the pest or weed control at 200 ppm in test [1] was at least 80%. Also, the inhibition of growth at 20 ppm in test [2] was at least 80%.

For the compound `O=C(CC1CC1)N(Cc1ccc(-c2noc(C(F)(F)F)n2)s1)OCC(F)F` [Compound 5.45, 2-cyclopropyl-N-(2,2-difluoroethoxy)-N-[[5-[5-(trifluoromethyl)-1,2,4-oxadiazol-3-yl]-2-thienyl]methyl]acetamide], the pest or weed control at 200 ppm in test [1] is at least 80%. For the same compound, the inhibition of growth at 20 ppm in test [2] is at least 80%.

As for `O=S(=O)(C1CC1)N(Cc1ccc(-c2noc(C(F)(F)F)n2)s1)C1CC1` [Compound 6.38, N-cyclopropyl-N-[[5-[5-(trifluoromethyl)-1,2,4-oxadiazol-3-yl]-2-thienyl]methyl]cyclopropanesulfonamide], the pest or weed control at 200 ppm in test [1] was at least 80%. In addition, the inhibition of growth at 20 ppm in test [2] was at least 80%.

For the compound `CN(Cc1ccc(-c2noc(C(F)(F)F)n2)s1)C(=O)C(=O)Cc1ccccc1` [Compound 6.50, N-methyl-2-oxo-3-phenyl-N-[[5-[5-(trifluoromethyl)-1,2,4-oxadiazol-3-yl]-2-thienyl]methyl]propanamide], in test [1], the pest or weed control at 200 ppm was at least 80%. Moreover, in test [2], the inhibition of growth at 20 ppm was at least 80%.

As for `O=C(N(Cc1ccc(-c2noc(C(F)(F)F)n2)s1)C1CC1)N(CC(F)F)C1CC1` [Compound 5.60, 1,3-dicyclopropyl-1-(2,2-difluoroethyl)-3-[[5-[5-(trifluoromethyl)-1,2,4-oxadiazol-3-yl]-2-thienyl]methyl]urea], the pest or weed control at 200 ppm in test [1] was at least 80%. For the same compound, in test [2], the inhibition of growth at 20 ppm is at least 80%.

For `CCN(Cc1ccc(-c2noc(C(F)(F)F)n2)s1)C(=O)C(=O)c1cccs1` [Compound 6.45, N-ethyl-2-oxo-2-(2-thienyl)-N-[[5-[5-(trifluoromethyl)-1,2,4-oxadiazol-3-yl]-2-thienyl]methyl]acetamide], the pest or weed control at 200 ppm in test [1] was at least 80%. In addition, in test [2], the inhibition of growth at 20 ppm was at least 80%.

As to `CN(C)S(=O)(=O)N(C)Cc1ccc(-c2noc(C(F)(F)F)n2)s1` [Compound 6.29, N-(dimethylsulfamoyl)-N-methyl-1-[5-[5-(trifluoromethyl)-1,2,4-oxadiazol-3-yl]-2-thienyl]methanamine], in test [1], the pest or weed control at 200 ppm was at least 80%. Also, the inhibition of growth at 20 ppm in test [2] is at least 80%.

For `CON(Cc1ccc(-c2noc(C(F)(F)F)n2)s1)C(=O)c1ccccc1Cl` [Compound 1.20, 2-chloro-N-methoxy-N-[[5-[5-(trifluoromethyl)-1,2,4-oxadiazol-3-yl]-2-thienyl]methyl]benzamide], the pest or weed control at 200 ppm in test [1] is at least 80%. Also, the inhibition of growth at 20 ppm in test [2] is at least 80%.

For the compound `CON(Cc1ccc(-c2noc(C(F)(F)F)n2)s1)S(=O)(=O)c1ccn(C)n1` [Compound 1.33, N-methoxy-1-methyl-N-[[5-[5-(trifluoromethyl)-1,2,4-oxadiazol-3-yl]-2-thienyl]methyl]pyrazole-3-sulfonamide], the pest or weed control at 200 ppm in test [1] was at least 80%. For the same compound, the inhibition of growth at 20 ppm in test [2] is at least 80%.

With `CON(Cc1ccc(-c2noc(C(F)(F)F)n2)s1)S(=O)(=O)N(C)C` [Compound 1.43, N-(dimethylsulfamoyl)-N-methoxy-1-[5-[5-(trifluoromethyl)-1,2,4-oxadiazol-3-yl]-2-thienyl]methanamine], in test [1], the pest or weed control at 200 ppm was at least 80%. Moreover, in test [2], the inhibition of growth at 20 ppm was at least 80%.

For `CN(Cc1ccc(-c2noc(C(F)(F)F)n2)s1)S(=O)(=O)C1CC1` [Compound 6.30, N-methyl-N-[[5-[5-(trifluoromethyl)-1,2,4-oxadiazol-3-yl]-2-thienyl]methyl]cyclopropanesulfonamide], in test [1], the pest or weed control at 200 ppm is at least 80%. The inhibition of growth at 20 ppm in test [2] is at least 80%.

For the compound `CN(C)S(=O)(=O)N(Cc1ccc(-c2noc(C(F)(F)F)n2)s1)C1CC1` [Compound 6.2, N-(dimethylsulfamoyl)-N-[[5-[5-(trifluoromethyl)-1,2,4-oxadiazol-3-yl]-2-thienyl]methyl]cyclopropanamine], in test [1], the pest or weed control at 200 ppm is at least 80%. Also, in test [2], the inhibition of growth at 20 ppm was at least 80%.

Take `O=C(C(=O)N(Cc1ccc(-c2noc(C(F)(F)F)n2)s1)C1CC1)c1ccccc1` [Compound 6.54, N-cyclopropyl-2-oxo-2-phenyl-N-[[5-[5-(trifluoromethyl)-1,2,4-oxadiazol-3-yl]-2-thienyl]methyl]acetamide]: the pest or weed control at 200 ppm in test [1] is at least 80%. Also, in test [2], the inhibition of growth at 20 ppm was at least 80%.
